Common to all, as to assay: Cell death assay (PI staining), radiation-resistant cells
Type in all cases: cell-based, human

Assay [1] relates to HR1 cells. The settings on record: HR1 compared to astrocytes. Here is the method: (§1) As with naïve cells, we determined the IC50 for DR1, DR2, […] and their SI compared to astrocytes.
(§2) Figure 8 C29 is efficient on radioresistant MB cell lines. (A) Cell death after 48 h of treatment with control (DMSO, CT) or C29 1, 2.5, or 5 µM on radiation-resistant cells (RR) and normal cells (N), n = 3. Statistics were performed using the one-way method ANOVA. * p < 0.05, ** p < 0.01, *** p < 0.001. For this figure, DR1 = D1, DR2 = D2, HR1 = H1, HR2 = H2, and C8D1A = C8. (B) Proliferation of DR1/DR2 (A) and HR1/HR2 (B) radio-resistant cells after 1 µM C29 treatment or control (DMSO), n = 3. (C) Clonogenic assay on DR1, DR2 (n = 3) and HR1, HR2 (n = 3) cells after treatment with control (DMSO) or C29 (1 µM or 2.5 µM). (D) Cell migration through the Boyden chamber of DR1 and DR2 cells specifically attracted by 200 ng/mL CXCL8. Cells were treated with control (DMSO) or C29 (1 and 2.5 µM). Results are expressed as percentage of control (n = 3). Scale = 1000 μm. Statistics were performed using Student t-test for 2 comparisons only or ANOVA test for multiple comparisons. * p < 0.05, ** p < 0.01, *** p < 0.001. […]
(§3) each month by using PlasmoTest Kit (#10L07‐MM, InvivoGen, Toulouse, France). Daoy and ONS‐76 belong to the Shh genetic subgroup, D341‐Med and HD‐MB03 to group 3.
(§4) Mouse cerebellar astrocytes C8D1A (CRL ‐2541) were purchased from the American Tissue Culture Collection ATCC. These cells were cultured in DMEM (1X) + GlutaMAX (Invitrogen) medium supplemented with 10% FBS (D. Dutscher). Cells were cultured at 37°C in a 5% CO2 incubator. […]
(§5) After 2 days, cells were treated with control (DMSO) or C29
(§6) (1, 2∙5, 5μM) for 48 hours. After 48 hours, the medium was recovered, and the adherent cells were dissociated and added to the supernatant. Cell death was detected by PE chan‐ nel using FACS Cytoflex (Beckman) immediately after labelling the cells with 1ug/ml pro‐ pidium iodide (Miltenyi Biotec). Data were presented with the percentage of cell death after subtracting the percentage of untreated and unlabelled dead cells.
(§7) Migration in Boyden chambers
(§8) The cells were deprived of serum overnight. 50000 cells were plated in triplicate in serum‐free medium into the upper compartment of pre‐wetted inserts (24‐well plate fit, translucent PET membrane, 8∙0 μ m pore size, Falcon, Thermo Fisher). Medium containing 10% serum or CXCL8 (200ng/ml, Peprotech) was added to the lower compartment. After 24 hours, migrated cells were fixed with 3% paraformaldehyde and stained with Crystal […]
Violet. […]
(§9) 5000 cells were plated in 48 multi‐well plates coated with agarose 0∙8%. […]

Assay [2] deals with DR1 cells. The settings on record: DR1 compared to astrocytes. As for the experimental part:
as §1, §2, §3, §4, §5, §6, §7, §8
Violet. […]
as §9

Assay [3] concerns HR2 cells. The settings on record: HR2 compared to astrocytes. Here is the method:
as §1, §2, §3, §4, §5, §6, §7, §8
Violet. […]
as §9

Assay [4] deals with DR2 cells. The settings on record: DR2 compared to astrocytes. As for the experimental part:
as §1, §2, §3, §4, §5, §6, §7, §8
Violet. […]
as §9

As for `O=C(Nc1cccc(Cl)c1)Nc1nc2ccc([N+](=O)[O-])cc2s1` [C29, 1-(3-chlorophenyl)-3-(6-nitrobenzo[d]thiazol-2-yl) urea], the “Selectivity index (SI)” value in assay [1] is recorded as 7.7; in assay [2], 3.9; in assay [3], 2.8; in assay [4], 3.9.

The record behind these values is publication PMC9738107, “Targeting of the ELR+CXCL/CXCR1/2 Pathway Is a Relevant Strategy for the Treatment of Paediatric Medulloblastomas” (Cells, 2022).
